Measurements from patent publication US11001561B2, “Pyrimidinone derivatives as SHP2 antagonists” (MERCK PATENT GMBH, priority 2019, dated 2021).
Entries after “also recorded” stand apart in the source; their conditions may differ. Like-named read-outs stand apart in the source and are kept apart here.

Experiments:
[1] = target: Full length SHP2 protein (Recombinant Human SHP-2) (Homo sapiens (Human), UniProt Q06124); test: SHP2 biochemical assay (DiFMUP substrate, activating peptide IRSI_2pY)
Method: The inhibition of SHP2 by compounds of the invention was monitored using the surrogate substrate DiFMUP after protein activation by a peptide bearing two appropriately spaced phosphotyrosine. […] The generation of the DiFMU product by activated SHP2 was monitored through Fluorescence measurement with a PerkinElmer Envision reader. The inhibitor dose response curves were analyzed with Genedata Screener.

pERK1/2 in KYSE520 cells = test: p-Erk cellular assay in KYSE520 (Mesoscale); format: cell-based; conditions: read-out: pERK1/2 in Cell KYSE520 IC50
Method: p-Erk Cellular Assay in KYSE520: The effect of SHP2 inhibitors on pERK level was assessed using phospho-specific antibody using Mesoscale quantification platform. For measuring change in pERK levels using mesoscale, 30,000 cells of KYSE520 cells were plated in 96-well tissue culture treated plate in 175 μl volume of media. After an overnight incubation at 37° C., various SHP2 inhibitors were added in different concentration to each well maintaining duplicate wells across plates and incubated with compounds for 2 h at 37° C. followed by a wash with ice cold PBS buffer. The cells were then lysed in lysis buffer and processed and analyzed for p-ERK/ERK as per manufacturer's instructions (Mesoscale discovery, cat No. […]-3).

[2] = target: Kv11.1 (hERG) ion channel (Homo sapiens (Human), UniProt Q12809); test: hERG patch clamp in Kv11.1 transfected HEK293 cells; format: cell-based
Sequence of Kv11.1 (hERG) ion channel (Q12809 whole entry): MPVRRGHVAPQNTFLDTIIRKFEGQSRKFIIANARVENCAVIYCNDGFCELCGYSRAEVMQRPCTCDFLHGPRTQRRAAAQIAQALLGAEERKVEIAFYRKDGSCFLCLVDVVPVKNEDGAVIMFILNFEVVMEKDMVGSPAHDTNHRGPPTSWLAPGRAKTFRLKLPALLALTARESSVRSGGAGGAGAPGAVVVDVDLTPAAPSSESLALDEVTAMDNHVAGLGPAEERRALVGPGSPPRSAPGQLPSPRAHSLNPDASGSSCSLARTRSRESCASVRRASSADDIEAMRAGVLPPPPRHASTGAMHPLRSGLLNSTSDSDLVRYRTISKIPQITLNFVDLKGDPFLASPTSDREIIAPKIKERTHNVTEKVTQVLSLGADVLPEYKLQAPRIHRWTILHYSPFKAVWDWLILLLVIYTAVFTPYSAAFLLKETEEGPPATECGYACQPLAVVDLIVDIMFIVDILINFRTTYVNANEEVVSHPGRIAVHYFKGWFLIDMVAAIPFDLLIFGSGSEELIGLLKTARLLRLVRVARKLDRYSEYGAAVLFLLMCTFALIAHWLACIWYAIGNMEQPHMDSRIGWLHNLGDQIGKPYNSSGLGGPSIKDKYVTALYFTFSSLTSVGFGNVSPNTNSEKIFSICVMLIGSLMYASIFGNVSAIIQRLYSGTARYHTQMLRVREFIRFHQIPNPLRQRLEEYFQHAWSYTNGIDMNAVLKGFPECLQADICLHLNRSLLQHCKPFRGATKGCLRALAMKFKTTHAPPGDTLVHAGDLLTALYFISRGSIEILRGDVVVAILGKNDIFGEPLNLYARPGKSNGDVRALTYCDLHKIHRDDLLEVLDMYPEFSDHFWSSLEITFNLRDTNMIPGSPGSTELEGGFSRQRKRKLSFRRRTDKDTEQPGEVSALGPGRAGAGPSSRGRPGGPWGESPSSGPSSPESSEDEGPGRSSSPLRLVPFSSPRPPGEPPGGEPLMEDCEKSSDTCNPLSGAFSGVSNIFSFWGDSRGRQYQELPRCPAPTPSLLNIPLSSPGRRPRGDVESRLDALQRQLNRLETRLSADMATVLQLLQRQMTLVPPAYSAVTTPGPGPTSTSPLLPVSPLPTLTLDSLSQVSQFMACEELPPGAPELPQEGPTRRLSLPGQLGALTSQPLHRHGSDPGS
Method: Inhibition of the ion channel hErg (or Kv11.1) current causes QT interval prolongation resulting in potentially fatal ventricular tachyarrhythmia called Torsade de Pointes.
hERG ion channel activity was assessed using a patch clamp technique in stable Kv11.1 (hERG) transfected human embryonic kidney cell line (HEK293). Whole cell recordings were carried out with an automated patch clamp device Patchliner™ from Nanion Technologies, Munich following manufacturer recommendation. Different concentrations of the test compound or reference, quinidine, were applied to whole cells suspension and current was measured using a pulse pattern with fixed amplitudes.

[3] = Pharmacokinetics in mouse (oral / intravenous); format: in vivo; conditions: female CD1 mice; for clearance / Vd: mouse; for Vd: read-out: Vd ss
Method: Female CD1 mice (N=3) received a single oral (gavage) or a single intravenous (bolus) injection of compound. […] Consecutive blood samples were taken sub-lingually under isofluorane inhalation from animals after 0.083 (IV), 0.25, 0.5, 1, 2, 4, 6 and 24 h and were further processed to obtain plasma. Samples were protein precipitated and analysed by LC/MS/MS.

[4] = target: auto-activated mutant protein SHP2 E76K (Homo sapiens (Human), UniProt Q06124, E76K); test: SHP2 active mutant E76K biochemical assay with and without activating peptide
Sequence of auto-activated mutant protein SHP2 E76K (Q06124 whole entry E76K): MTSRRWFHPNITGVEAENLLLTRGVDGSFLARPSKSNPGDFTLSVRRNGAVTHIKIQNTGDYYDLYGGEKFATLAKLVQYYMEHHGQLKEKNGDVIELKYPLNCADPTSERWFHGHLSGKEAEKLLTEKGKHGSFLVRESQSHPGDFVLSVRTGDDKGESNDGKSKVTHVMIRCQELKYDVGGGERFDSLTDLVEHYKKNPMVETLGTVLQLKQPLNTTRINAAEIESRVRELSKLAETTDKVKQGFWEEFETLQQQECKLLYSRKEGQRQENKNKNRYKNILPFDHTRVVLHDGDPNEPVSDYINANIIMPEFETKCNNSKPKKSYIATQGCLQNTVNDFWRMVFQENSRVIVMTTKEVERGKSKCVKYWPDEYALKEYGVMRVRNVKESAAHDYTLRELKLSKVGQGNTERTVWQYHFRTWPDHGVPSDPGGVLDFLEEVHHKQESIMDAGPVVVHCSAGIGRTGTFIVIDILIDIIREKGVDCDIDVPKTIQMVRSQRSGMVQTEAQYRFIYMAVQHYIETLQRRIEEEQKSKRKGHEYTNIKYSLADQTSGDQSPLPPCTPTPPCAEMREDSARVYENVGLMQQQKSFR
Method: The inhibition of SHP2 by compounds of the invention was monitored using the surrogate substrate DiFMUP after protein activation by a peptide bearing two appropriately spaced phosphotyrosine. Full length SHP2 protein (Recombinant HumanSHP-2, E. coli derived Ser2Arg593, N-terminal 6His tag from R&D systems; 0.0.24 nM) was incubated with activating peptide, IRSI_2pY (New England Peptide, 140 nM) and DiFMUP (molecular probes, 80 uM) at RT in buffer (HEPES pH 7.2 60 mM, DDT 5 mM, KCl 75 mM, NaCl 75 mM, EDTA 1 mM, Tween 20 0.05%) in presence of compound (10 concentrations range, top concentration 50 μM) for 60 min. The generation of the DiFMU product by activated SHP2 was monitored through Fluorescence measurement with a PerkinElmer Envision reader. The inhibitor dose response curves were analyzed with Genedata Screener.

[5] = tested on: MCP-1 production in U937 cells; test: Cytokine release assay in U937 cells (MCP-1 AlphaLISA, IL-6 stimulation); format: cell-based; conditions: Homo sapiens, U-937; U937 cells stimulated with IL-6 (50 ng/mL) overnight
Method: Selected compounds were tested in a cytokine release assay in monocytic cells (U937) to test their anti-inflammatory properties. Cells were plated in a 96-well cell culture plate using serum-free media. The cells were treated with indicated concentrations of SHP-2 inhibitors for 30 minutes followed by overnight stimulation with recombinant IL-6 (50 ng/mL). The MCP-1 production was measured in the culture supernatant using a MCP-1 AlphaLISA kit (Perkin Elmer).

[6] = target: Recombinant human SHP2 protein (2-593) (Homo sapiens (Human), UniProt Q06124); test: SPR binding assay
Sequence of Recombinant human SHP2 protein (2-593) (Q06124 2-593): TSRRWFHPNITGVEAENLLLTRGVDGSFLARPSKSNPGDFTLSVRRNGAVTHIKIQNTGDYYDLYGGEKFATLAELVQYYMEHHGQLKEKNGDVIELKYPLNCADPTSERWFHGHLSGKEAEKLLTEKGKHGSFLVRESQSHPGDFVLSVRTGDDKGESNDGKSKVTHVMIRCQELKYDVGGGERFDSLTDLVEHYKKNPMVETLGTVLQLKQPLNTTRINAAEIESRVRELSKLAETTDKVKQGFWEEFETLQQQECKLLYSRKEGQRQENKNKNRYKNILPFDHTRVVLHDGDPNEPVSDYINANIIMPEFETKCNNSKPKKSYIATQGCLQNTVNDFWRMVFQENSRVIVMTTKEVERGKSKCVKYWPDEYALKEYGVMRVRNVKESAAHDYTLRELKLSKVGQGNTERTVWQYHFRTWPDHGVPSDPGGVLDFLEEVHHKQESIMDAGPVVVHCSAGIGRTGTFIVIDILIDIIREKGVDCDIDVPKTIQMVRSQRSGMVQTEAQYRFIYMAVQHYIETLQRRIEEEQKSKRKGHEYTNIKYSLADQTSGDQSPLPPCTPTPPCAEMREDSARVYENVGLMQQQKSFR
Method: The immobilization buffer contained 20 mM HEPES/NaOH (pH 7.4), 150 mM NaCl, 0.05% Tween 20. Inhibitors (stored as 10 mM stock solutions in 100% DMSO) were diluted in running buffer (20 mM HEPES/NaOH pH 7.4, 150 mM NaCl, 1 mM DTT, 5 mM MgCl2 0.1 mM EGTA, 0.05% Tween 20, 2% DMSO @25° C.) and analysed with a Biacore 4000 (Biacore AB, GE Healthcare Life Sciences, Uppsala, Sweden) using a 2-fold dilution series. The highest compound concentration varied according to the expected dissociation constant, but all compounds were tested at 10 different concentrations. Interaction analysis cycles were run at 30 μL/min and consisted of a 140 s sample injection followed by 600 s of buffer flow (dissociation phase). All sensograms were evaluated by first subtracting the binding response recorded from the control surface (reference spot), followed by subtracting a buffer blank injection. To determine kinetic rate constants, data sets were fitted to a simple 1:1 interaction model including a term for mass transport using numerical integration and nonlinear curve fitting. Equilibrium analysis was performed by fitting the response at the end of the association phase to a single-site binding isotherm.

Kyse-520 xenografts = test: Kyse-520 xenograft (EGFR amplified esophageal cancer)
Text: H2D Rag2 mice were inoculated with 5 million KYSE-520 cells mixed with matrigel.
In vivo efficacy of compound 74a in an EGFR amplified setting was investigated in Kyse-520 xenografts. H2D Rag2 mice were inoculated with 5 million KYSE-520 cells mixed with matrigel.

MiaPaCa-2 xenografts = format: in vivo, mouse; conditions: H2D Rag2 mice, 50 or 100 mg/kg daily oral gavage
Text: H2D Rag2 mice were inoculated with 3 million MiaPaCa-2 cells.

U87-MG xenografts = test: U87-MG xenograft (PTEN LOF glioblastoma); format: in vivo, mouse; conditions: CD-1 nude mice, 50 mg/kg daily oral gavage, FIG. 6
Text: CD-1 nude mice were inoculated with 10 million U87-MG cells.

EBC-1 xenografts = test: EBC-1 xenograft (cMET amplified non-small cell lung cancer); format: in vivo; conditions: CD-1 nude mice, 100 mg/kg daily oral gavage
Text: CD-1 nude mice were inoculated with 5 million EBC-1 cells.

HPAF-2 xenografts = conditions: CB17.SCID mice, 50 mg/kg 23B or 60 mg/kg RMC-4550 daily oral gavage
[7] = SHP-2 IC50 (nM) peptide, wild-type SHP-2, with activating peptide
[8] = SHP-2 biochemical assay IC50 (μM), activating peptide IRSI_2pY 140 nM, DiFMUP, 60 min
[9] = SHP-2 E76Z IC50 (nM) No peptide, without activating peptide

Sequence of Full length SHP2 protein (Recombinant Human SHP-2) (Q06124 2-593): as above

Row | Structure (SMILES) | IC50 [1, 7] [nM] | IC50 [1, 8] [nM] | IC50 (pERK1/2 in KYSE520 cells; Homo sapiens, KYSE-520, 2 h) [nM] | Ki [2] [nM] | Split between hErg and cell activity Ki (patch Clamp)/IC50 (KYSE) ([2]; human) | Fz [3] [%] | clearance ([3]; plasma, intravenous) [mL/min/kg] | Vd ([3]; plasma, intravenous) [L/kg] | IC50 [4, 9] [nM] | further results
1 | Cc1c(N2CCC3(CC2)Cc2ncccc2[C@H]3N)nc(C)n(-c2cccc(Cl)c2Cl)c1=O (single isomer, unassigned) [Compound 66b] | 0.7 | 1 | 5 | 7500 | 580 | 100 | 8.33 | 1.96 | 1.9 | IC50 ([4]; SHP-2 E76Z IC50 (nM) peptide, with activating peptide IRSI_2pY 140 nM): 1.9 nM
2 | Cc1c(N2CCC3(CC2)Cc2ccccc2[C@H]3N)nc(N)n(-c2cccc(Cl)c2Cl)c1=O [Compound 117, 2-amino-6-[(3S)-3-amino-1,3-dihydrospiro[indene-2,4′-piperidin]-1′-yl]-3-(2,3-dichlorophenyl)-5-methyl-3,4-dihydropyrimidin-4-one] | – | – | 6 | 2500 | 417 | – | – | – | – | IC50 ([1]; activating peptide IRSI_2pY 140 nM, DiFMUP, 60 min, read-out: SHP-2 biochemical assay IC50): 15 nM
3 | Cc1c(N2CCC3(CC2)C[C@@H](C)C[C@H]3N)nc(C)n(-c2cccc(Cl)c2Cl)c1=O [Compound 77, (3M)-6-[(1R,3R)-1-amino-3-methyl-8-azaspiro[4.5]decan-8-yl]-3-(2,3-dichlorophenyl)-2,5-dimethyl-3,4-dihydropyrimidin-4-one] | – | 6 | 74 | – | – | – | – | – | – | IC50 [5]: 731 nM
4 | Cc1c(N2CCC3(CC2)CO[C@@H](C)[C@H]3N)nc(C)n(-c2cccc(Cl)c2Cl)c1=O (single isomer, unassigned) [Compound 23b] | 12 | 9 | 94 | > 10000 | – | 100 | 15.5 | 4.64 | 21 | IC50 ([4]; with activating peptide IRSI_2pY 140 nM, read-out: SHP-2 E76Z IC50 (nM) peptide): 12 nM; Kd [6]: 7.14 nM; tolerability (Kyse-520 xenografts; H2D Rag2 mice, 10, 30 or 100 mg/kg daily oral gavage): All doses were well tolerated; tumor growth inhibition (Kyse-520 xenografts; H2D Rag2 mice, 10, 30 or 100 mg/kg daily oral gavage, FIG. 2): multiple dosage levels reduce growth of the tumor a significant amount; also recorded: dose-dependent significant tumor growth inhibition; tolerability (MiaPaCa-2 xenografts): All doses were well tolerated; tumor growth / regression (U87-MG xenografts): reduces tumor size as compared to baseline; also recorded: Tumor regression; tolerability (EBC-1 xenografts): All doses were well tolerated; tumor growth inhibition (EBC-1 xenografts; FIG. 7): reduces tumor growth; also recorded: Significant tumor growth inhibition; tolerability (HPAF-2 xenografts): All doses were well tolerated; tumor inhibition (HPAF-2 xenografts; FIG. 5): Significant tumor inhibition
5 | Cc1nc(N2CCC3(CC2)CO[C@@H](C)[C@H]3N)c(CO)nc1-c1cccc(Cl)c1Cl [RMC-4550, reference compound] | – | – | – | 600 | – | 86 | 20 | – | – | Vd ([3]; in vivo): 6.1 L/kg
6 | Cc1c(N2CCC3(CC2)Cc2ccccc2[C@H]3N)nc(C)n(-c2cccc(Cl)c2Cl)c1=O [Compound 74a, (3M)-6-[(1S)-1-amino-1,3-dihydrospiro[indene-2,4′-piperidin]-1′-yl]-3-(2,3-dichlorophenyl)-2,5-dimethyl-3,4-dihydropyrimidin-4-one] | – | – | – | 1200 | – | 100 | 8.33 | 5.1 | – | IC50 (pERK1/2 in KYSE520 cells; 2 h): 2 nM; Split between hErg and cell activity Ki (patch Clamp)/IC50 (KYSE) [2]: 704; koff ([6]; SPR, 25° C.): < 0.0001 s⁻¹; residence time ([6]; SPR, 25° C.): > 160 min; tolerability (Kyse-520 xenografts; H2D Rag2 mice, 0.8, 2.5 or 8 mg/kg daily oral gavage): All doses were well tolerated
